Assay results as given in EP0554004A2, “Cephem compounds and antibacterial agents” (KATAYAMA SEIYAKUSYO CO. Ltd., priority 1992, dated 1993).
Where a name gives a salt, the structure may show the parent alone.

Legend:
[1] = tested on: Bacillus subtilis ATCC 6633; assay: MIC against standard strains (Test Example 1); format: cell-based; settings: ATCC6633, Muller-Hinton agar, 37°C overnight
Experimental: (§1) By using each test strain cultured overnight at 37°C in a Muller-Hinton broth, there was prepared a bacterial solution with a bacterial cell population of 1 x 10^6 CFU/mi of the same bouillon. The bacterial solution was inoculated into the Muller-Hinton agar media each containing respectively one test agent and, after overnight incubation at 37°C, the minimum concentration that inhibited growth of the bacteria was determined and shown as MIC also in Table 1.
(§2) Staphylococcus aureus 167 and Staphylococcus aureus 195 used in the test were MRSA. CTM (cefotiam) and FMOX (flomoxef) were used as control agents.

[2] = tested on: Citrobacter freundii ATCC 8090; assay: MIC against standard strains (Test Example 1); format: cell-based; settings: ATCC8090, Muller-Hinton agar, 37°C overnight
Experimental: as §1, §2

[3] = tested on: Enterobacter cloacae ATCC 13407; assay: MIC against standard strains (Test Example 1); format: cell-based; settings: ATCC13407, Muller-Hinton agar, 37°C overnight
Experimental: as §1, §2

[4] = tested on: Escherichia coli CSH2 (RE45); assay: MIC against standard strains (Test Example 1); format: cell-based
Experimental: as §1, §2

[5] = tested on: Escherichia coli CSH2 (RK1); assay: MIC against standard strains (Test Example 1); format: cell-based
Experimental: as §1, §2

[6] = tested on: Escherichia coli NIHJ JC-2; assay: MIC against standard strains (Test Example 1); format: cell-based; settings: NIHJJC2, Muller-Hinton agar, 37°C overnight
Experimental: as §1, §2

[7] = tested on: Klebsiella pneumoniae IFO 3317; assay: MIC against standard strains (Test Example 1); format: cell-based; settings: IFO3317, Muller-Hinton agar, 37°C overnight
Experimental: as §1, §2

[8] = tested on: Klebsiella pneumoniae No. 42; assay: MIC against standard strains (Test Example 1); format: cell-based; settings: Muller-Hinton agar, 37°C overnight
Experimental: as §1, §2

[9] = tested on: Micrococcus luteus ATCC 9341; assay: MIC against standard strains (Test Example 1); format: cell-based; settings: ATCC9341, Muller-Hinton agar, 37°C overnight
Experimental: as §1, §2

[10] = tested on: Morganella morganii IFO 3848; assay: MIC against standard strains (Test Example 1); format: cell-based; settings: IFO3848, Muller-Hinton agar, 37°C overnight
Experimental: as §1, §2

[11] = tested on: Proteus mirabilis IFO 3849; assay: MIC against standard strains (Test Example 1); format: cell-based; settings: IFO3849, Muller-Hinton agar, 37°C overnight
Experimental: as §1, §2

Proteus vulgalis OX-19 = assay: MIC against standard strains (Test Example 1); format: cell-based; settings: Muller-Hinton agar, 37°C overnight
Experimental: as §1, §2

[12] = tested on: Pseudomonas aeruginosa NCTC 10490; assay: MIC against standard strains (Test Example 1); format: cell-based; settings: NCTC10490, Muller-Hinton agar, 37°C overnight
Experimental: as §1, §2

[13] = tested on: Psuedomonas aeruginosa IFO 3445; assay: MIC against standard strains (Test Example 1); format: cell-based; settings: Muller-Hinton agar, 37°C overnight
Experimental: as §1, §2

[14] = tested on: Serratia marcescens IAM 1184; assay: MIC against standard strains (Test Example 1); format: cell-based; settings: IAM1184, Muller-Hinton agar, 37°C overnight
Experimental: as §1, §2

[15] = tested on: Staphylococcus aureus 167; assay: MIC against standard strains (Test Example 1); format: cell-based; settings: Staphylococcus aureus 167 (MRSA); Muller-Hinton agar, 37°C overnight
Experimental: as §1, §2

[16] = tested on: Staphylococcus aureus 195; assay: MIC against standard strains (Test Example 1); format: cell-based; settings: Staphylococcus aureus 195 (MRSA); Muller-Hinton agar, 37°C overnight
Experimental: as §1, §2

[17] = tested on: Staphylococcus aureus 209P JC-1; assay: MIC against standard strains (Test Example 1); format: cell-based; settings: Muller-Hinton agar, 37°C overnight
Experimental: as §1, §2

[18] = tested on: Staphylococcus aureus Smith; assay: MIC against standard strains (Test Example 1); format: cell-based; settings: Muller-Hinton agar, 37°C overnight
Experimental: as §1, §2

[19] = tested on: Staphylococcus epidermidis IAM 1296; assay: MIC against standard strains (Test Example 1); format: cell-based; settings: IAM1296, Muller-Hinton agar, 37°C overnight
Experimental: as §1, §2

clinically isolated MRSA = assay: Antibacterial potency against clinically isolated MRSA (Test Example 2); format: cell-based, methicillin-resistant Staphylococcus aureus; settings: Staphylococcus aureus, 52 strains of clinically isolated MRSA; for MIC50: concentration inhibiting growth of 50% of the strains (Test Example 2); for MIC90: concentration inhibiting growth of 90% of the strains (Test Example 2)
Experimental: A test on the antibacterial potency against clinically isolated MRSA was conducted in the following way.
52 strains of clinically isolated MRSA were used, and MIC was determined for each of the strains according to the standard method of the Japan Chemotherapical Society as in Test Example 1. The minimum growth inhibitory concentration which inhibited growth of 50% of the strains tested was expressed as MIC50 (µg/ml), and the minimum growth inhibitory concentration which inhibited growth of 90% of the strains was expressed as MIC90 (µg/ml).
In this test, FMOX (flomoxef), IPM/CS (imipenem/cilastatin), CMZ (cefmetazole), MINO (minocycline) and DMPPC (methicillin) were used as control agents.

Structure (SMILES) | MIC [1] | MIC [2] | MIC [3] | MIC [4] | MIC [5] | MIC [6] | MIC [7] | MIC [8] | MIC [9] | MIC [10] | MIC [11] | MIC (Proteus vulgalis OX-19) | MIC [12] | MIC [13] | MIC [14] | MIC [15] | MIC [16] | MIC [17] | MIC [18] | MIC [19] | other results
NC(=O)Nc1ccc[n+](CC2=C(C(=O)[O-])N3C(=O)[C@@H](NC(=O)/C(=N\O)c4csc(N)n4)[C@H]3SC2)c1 [Compound (4), 7β-[2-(2-aminothiazol-4-yl)-2-syn-hydroxyiminoacetamido]-3-[(3-ureido-1-pyridinio)methyl]-3-cephem-4-carboxylic acid chloride] | 0.2 µg/mL | 0.1 µg/mL | 0.39 µg/mL | 0.39 µg/mL | 0.78 µg/mL | 0.1 µg/mL | 0.1 µg/mL | 0.39 µg/mL | 0.39 µg/mL | 0.05 µg/mL | 0.1 µg/mL | 0.78 µg/mL | 1.56 µg/mL | 12.5 µg/mL | 0.1 µg/mL | 12.5 µg/mL | 3.13 µg/mL | 0.1 µg/mL | 0.2 µg/mL | 0.05 µg/mL | MIC50 (clinically isolated MRSA): 2.17 µg/mL; MIC90 (clinically isolated MRSA): 6.16 µg/mL
NC(=O)c1ccc[n+](CC2=C(C(=O)[O-])N3C(=O)[C@@H](NC(=O)/C(=N\O)c4csc(N)n4)[C@H]3SC2)c1 [Compound (1), 7β-[2-(2-aminothiazol-4-yl)-2-syn-hydroxyiminoacetamido]-3-[(3-carbamoyl-1-pyridinio)methyl]-3-cephem-4-carboxylic acid chloride] | 0.39 µg/mL | 0.39 µg/mL | 0.78 µg/mL | 0.39 µg/mL | 0.78 µg/mL | 0.39 µg/mL | 0.2 µg/mL | 0.78 µg/mL | 0.05 µg/mL | 0.39 µg/mL | 0.39 µg/mL | 0.78 µg/mL | 3.13 µg/mL | 25 µg/mL | 0.2 µg/mL | 6.25 µg/mL | 3.13 µg/mL | 0.2 µg/mL | 0.39 µg/mL | 0.1 µg/mL | MIC50 (clinically isolated MRSA): 3.79 µg/mL; MIC90 (clinically isolated MRSA): 11.4 µg/mL
Nc1ccc[n+](CC2=C(C(=O)[O-])N3C(=O)[C@@H](NC(=O)/C(=N\O)c4csc(N)n4)[C@H]3SC2)c1 [Compound (3), 7β-[2-(2-aminothiazol-4-yl)-2-syn-hydroxyiminoacetamido]-3-[(3-amino-1-pyridinio)methyl]-3-cephem-4-carboxylate hydrochloride] | 0.2 µg/mL | 0.2 µg/mL | 3.13 µg/mL | 0.2 µg/mL | 0.39 µg/mL | 0.2 µg/mL | 0.1 µg/mL | 0.2 µg/mL | 0.05 µg/mL | 0.05 µg/mL | 0.2 µg/mL | 0.39 µg/mL | 3.13 µg/mL | 6.25 µg/mL | 0.1 µg/mL | 12.5 µg/mL | 3.13 µg/mL | 0.2 µg/mL | 0.39 µg/mL | 0.1 µg/mL | MIC50 (clinically isolated MRSA): 3.94 µg/mL; MIC90 (clinically isolated MRSA): 9.21 µg/mL
Nc1nc(/C(=N/O)C(=O)N[C@@H]2C(=O)N3C(C(=O)[O-])=C(C[n+]4ccc(-c5csc(N)n5)cc4)CS[C@H]23)cs1 [Compound (5), 7β-[2-(2-aminothiazol-4-yl)-2-syn-hydroxyiminoacetamido]-3-[[4-(2-aminothiazol-4-yl)-1-pyridi-i-nio]methyl]-3-cephem-4-carboxylic acid chloride] | 0.2 µg/mL | 0.2 µg/mL | 0.78 µg/mL | 0.05 µg/mL | 0.2 µg/mL | 0.2 µg/mL | 0.05 µg/mL | 0.1 µg/mL | 0.025 µg/mL | 0.05 µg/mL | 0.1 µg/mL | 0.2 µg/mL | 1.56 µg/mL | 25 µg/mL | 0.2 µg/mL | 6.25 µg/mL | 3.13 µg/mL | 0.2 µg/mL | 0.2 µg/mL | 0.1 µg/mL | MIC50 (clinically isolated MRSA): 3.13 µg/mL; MIC90 (clinically isolated MRSA): 8.69 µg/mL
CC(=O)c1ccc[n+](CC2=C(C(=O)[O-])N3C(=O)[C@@H](NC(=O)/C(=N\O)c4csc(N)n4)[C@H]3SC2)c1 [Compound (2), 7β-[2-(2-aminothiazol-4-yl)-2-syn-hydroxyiminoacetamido]-3-[(3-acetyl-1-pyridinio)methyl]-3-cephem-4-carboxylic acid chloride] | 0.78 µg/mL | 0.39 µg/mL | 1.56 µg/mL | 0.78 µg/mL | 0.78 µg/mL | 0.39 µg/mL | 0.39 µg/mL | 0.78 µg/mL | 0.1 µg/mL | 0.2 µg/mL | 0.39 µg/mL | 0.39 µg/mL | 3.13 µg/mL | 25 µg/mL | 0.39 µg/mL | 12.5 µg/mL | 6.25 µg/mL | 0.2 µg/mL | 0.39 µg/mL | 0.2 µg/mL | MIC50 (clinically isolated MRSA): 3.77 µg/mL; MIC90 (clinically isolated MRSA): 9.47 µg/mL
